Measurements: ChEMBL document CHEMBL5726765, “5-hydroxytryptamine receptor 7 activity modulators and their method of use” (2019)

Molecular target: 5-hydroxytryptamine receptor 7 (Homo sapiens, UniProt P34969)
Assay: A similar stock of the reference compound chlorpromazine is also prepared as a positive control. Eleven dilutions (5× assay concentration) of the compound of the disclosure and chlorpromazine are prepared in the Assay Buffer by serial dilution to yield final corresponding assay concentrations ranging from 10 pM to 10 μM.A stock concentration of 5 nM [3H]LSD (lysergic acid diethyl amide) is prepared in 50 mM Tris-HCl, 10 mM MgCl2, 1 mM EDTA, pH 7.4 (Assay Buffer). Aliquots (50 μl) of radioligand are dispensed into the wells of a 96-well plate containing 100 μl of Assay Buffer. Duplicate 50-μl aliquots of the compound of the disclosure test and chlorpromazine positive control reference compound serial dilutions are added.Membrane fractions of cells expressing recombinant 5HT7 receptors (50 μL) are dispensed into each well. […]

Sequence of 5-hydroxytryptamine receptor 7 (P34969 whole entry): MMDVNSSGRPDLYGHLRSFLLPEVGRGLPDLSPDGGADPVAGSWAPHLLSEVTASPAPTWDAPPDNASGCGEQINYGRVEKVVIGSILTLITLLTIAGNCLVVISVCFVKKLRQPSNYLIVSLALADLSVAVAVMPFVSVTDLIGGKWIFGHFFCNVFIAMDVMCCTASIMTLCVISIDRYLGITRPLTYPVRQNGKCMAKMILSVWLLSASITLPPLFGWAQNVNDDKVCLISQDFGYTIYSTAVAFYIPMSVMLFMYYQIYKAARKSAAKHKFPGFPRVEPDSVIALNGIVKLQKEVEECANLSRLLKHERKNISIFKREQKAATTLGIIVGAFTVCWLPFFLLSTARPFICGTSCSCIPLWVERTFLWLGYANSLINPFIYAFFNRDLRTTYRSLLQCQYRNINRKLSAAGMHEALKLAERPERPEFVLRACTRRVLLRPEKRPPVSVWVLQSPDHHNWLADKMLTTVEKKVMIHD

SMILES: CCC1(CC)CC(CCN2CCC(C(O)(c3ccccc3)c3ccccc3)CC2)OC1=O (stereo unspecified)
- IC50: 3.16 µM
